Laboratory results as given in PMC4832822, “Investigating the Influence of (Deoxy)fluorination on the Lipophilicity of Non‐UV‐Active Fluorinated Alkanols and Carbohydrates by a New log P Determination Method” (Angewandte Chemie (International Ed. in English), 2015).
Several values for one entry are separate records, joined by “and”; a condition that tells them apart may be missing. Equal values may be shown once. Read-outs that look alike come from different tables or passages of the source.

Assays:
[1] = cited from earlier work
[2] = milogP calculated using Molinspiration Cheminformatics; conditions: Table SI14
[3] = log P determination by 19F NMR shake-flask method with internal fluorinated reference (octanol/water); conditions: for ΔlogP (exp. logP vs logP lit): Table SI12
[4] = octanol/water, Average logP, 25 °C, reference TFE (+0.36)
[5] = octanol/water, error (mean logP to three decimals), reference TFE (+0.36)
[6] = octanol/water, logP, 19F NMR, 25 °C, average value
[7] = octanol/water, logP, single experiment, reference TFE (+0.36)

| SMILES | ΔlogP (milogP vs logP exp) [2] | Average logP ([3]; 25 °C, reference TFE (+0.36)) | ΔlogP (exp. logP vs logP lit) [3] | logP [3, 4] | logP [3, 5] | logP [3, 6] | logP [3, 7] | also measured |
| --- | --- | --- | --- | --- | --- | --- | --- | --- |
| OCC(F)(F)C(F)(F)F [compound 13, CF3CF2CH2OH] | +0.05 | +1.20 | -0.03 | 1.2 | 1.2 | 1.2 | 1.2 | logP (lit) ([1]; ref chemidplus database, Hansch, Leo 1979 and Leo, Elkins, Chem. Rev. 1971): 1.23; logP ([3]; octanol/water, average logP, mA 2.0 mg, mREF 0.8 mg, reference CF3CH2OH): 1.2; logP ([3]; octanol/water, average logP, mA 10.0 mg, mREF 4.0 mg): 1.2; logP ([3]; octanol/water, average logP, mA 70.0 mg, mREF 30.0/70.0 mg): 1.18; logP ([3]; octanol/water, average logP, mA 120.0 mg, mREF 60.0 mg): 1.18; logP ([3]; octanol/water, logP, single experiment, mA 2.0 mg, mREF 0.8 mg, reference CF3CH2OH): 1.2; logP ([3]; octanol/water, logP, single experiment, mA 10.0 mg, mREF 4.0 mg): 1.2; logP ([3]; octanol/water, logP, single experiment, mA 70.0 mg, mREF 30.0/70.0 mg): 1.18; logP ([3]; octanol/water, logP, single experiment, mA 120.0 mg, mREF 60.0 mg): 1.17; mean logP ([3]; reference TFE (+0.36)): 1.200; logP ([3]; single experiment, mA 2.0 mg, mREF 0.8 mg, reference CF3CH2OH): 1.200; logP ([3]; single experiment, mA 10.0 mg, mREF 4.0 mg): 1.200 and 1.195; logP ([3]; single experiment, mA 70.0 mg, mREF 30.0/70.0 mg): 1.179; logP ([3]; single experiment, mA 120.0 mg, mREF 60.0 mg): 1.178 and 1.174; logP ([3]; single experiment, reference TFE (+0.36)): +1.200 and +1.199 |
| OCCCC(F)(F)F [compound 23, 4,4,4-trifluoro-1-butanol] | +0.24 | +0.91 | +0.01 | 0.91 | 0.91 | 0.91 | 0.918 | logP (lit) ([1]; ref chemidplus database and N. Muller 1986): +0.90; logP ([3]; octanol/water, 19F NMR, 25 °C, average value): +0.91 |
| OCCCCC(F)(F)F [compound 35] | +0.43 | +1.22 | +0.07 | 1.22 | 1.22 | 1.22 | 1.22 | logP (lit) ([1]; shake-flask, 1H or 19F NMR, temperature not reported, ref N. Muller, J. Pharm. Sci. 1986): +1.15 |
